In US20140199760A1, “PLANTS HAVING ENHANCED ABIOTIC STRESS RESISTANCE” (UNIVERSITY OF TORONTO, priority 2011, published 2014):

Columns and labels:
canola (Westar cultivar) = test: Drought treatment of canola with BRZ added to soil; water loss per final shoot dry weight; format: in vivo
corn (B73 cultivar) = test: Drought treatment of corn with BRZ added to soil; water loss per final shoot dry weight; format: in vivo
Excerpt: (§1) FIG. 2. (A) Soil water content of wild-type Columbia (red), era1-2 (green), and line cyp85a2 (blue) during a drought treatment. […] Error bars represent standard error (n=8). (B) Water loss during the first 9 days of drought treatment divided by the final shoot dry weight (SDW) in wild-type Columbia, era1-2, and line cyp85a2. Error bars represent standard error (n=6). (C) Cold stress treatment. […]
(§2) Soil (20:20:20), prepared that day, was consistently weighed into pots (typically 140 g) and covered with a plastic wrap (GLAD Press'n Seal® Wrap) that had been punctured with a small hole in the centre. […] This was typically done by withholding water for 9 days after which shoot biomass was harvested and fresh weight was determined. Shoots were then dried at 60 C for 3 days and dry weight was determined. […]
(§3) The observation that a deficiency in endogenous BL in cyp85a2 enables drought resistance to Arabidopsis prompted the hypothesis that a similar mechanism might exist in other plant species, such as corn, soybean, and canola. […] Immediately […] the start of the experiment, daily measurements of water use were monitored to quantify the rate of water loss. […]

[1] = test system: soybean (OAC Wallace cultivar); test: Drought treatment of soybean with BRZ added to soil; water loss per final shoot dry weight; format: in vivo
Excerpt: as §1, §2, §3

bean crop = conditions: applied brassinolide; cited from earlier work
[2] = 10 μM final concentration in soil, root uptake, 4 day drought, vs untreated controls

Row | Compound | water use efficiency improved (canola (Westar cultivar); [2]) [%] | water loss per unit of shoot weight than that of the untreated controls (canola (Westar cultivar); 10 μM final, drought, P<0.05) | water use efficiency improved (corn (B73 cultivar); 20 μM final concentration in soil, root uptake, 3.5 day drought, vs untreated controls) [%] | water loss per unit of shoot weight than that of the untreated controls (corn (B73 cultivar); 20 μM final, drought, P<0.05) | water use efficiency improved [1, 2] [%] | water loss per unit of shoot weight than that of the untreated controls ([1]; 10 μM final, drought, P<0.05) | increase bean crop yield (bean crop)
1 | CC(O)(c1ccccc1)C(Cc1ccc(Cl)cc1)n1cncn1 (stereo not shown) [BRZ, Brassinazole] | 15 | significantly less | 28 | significantly less | 14 | significantly less | –
2 | CC(C)[C@H](C)[C@@H](O)[C@H](O)[C@@H](C)[C@H]1CC[C@H]2[C@@H]3COC(=O)[C@H]4C[C@H](O)[C@H](O)C[C@]4(C)[C@H]3CC[C@]12C [brassinolide, Brassinolide] | – | – | – | – | – | – | approximately 45%
